What all share (assay): Post-emergence test/greenhouse
Common to all, as to format: in vivo

The test system of data set [1] is Veronica. Conditions: 60 g ai./ha, after three weeks. The protocol: (§1) Post-Emergence Test/Greenhouse [table] To produce a suitable preparation of active compound, 1 part by weight of active compound is mixed with the stated amount of solvent, the stated amount of emulsifier is added and the concentrate is diluted with water to the desired concentration. Test plants which have a height of 5-15 cm are sprayed with the preparation of active compound such that the particular amounts of active compound desired are applied per unit area. The concentration of the spray liquor is chosen so that the particular amounts of active compound desired are applied in 500 ml of water/ha. After three weeks, the degree of damage to the plants is assessed in % damage in comparison to the development of the untreated control. The figures denote: • 0%=no effect (like untreated control) • 100%=total destruction

The subject of data set [2] is Setaria. Particulars: after three weeks. The procedure: as §1
Data set [3] concerns Alopecurus. Conditions: 504 h, after three weeks, read-out: degree of damage, Alopecurus. The protocol: as §1
Data set [4] concerns Bromus. Particulars: 60 g ai./ha, after three weeks. The procedure:
as §1

The test system of data set [5] is Agropyron. Particulars: 60 g ai./ha, after three weeks. The procedure: as §1
The test system of data set [6] is Avena. Particulars: after three weeks. The protocol:
as §1

The test system of data set [7] is Lolium. Conditions: 60 g ai./ha, after three weeks. The procedure: as §1
The subject of data set [8] is Wheat. Particulars: wheat, in vivo, 3 weeks. The protocol:
as §1

The structures appear in SMILES notation. Where a name gives a salt, the structure may show the parent alone.

As to `COc1nn(C(=O)NS(=O)(=O)c2ccccc2OC(F)(F)F)c(=O)n1C` [(I)-Na-salt, 2-(2-trifluoromethoxy-phenylsulphonylaminocarbonyl)-4-methyl-5-methoxy-2,4-dihydro-3H-1,2,4-triazol-3-one], in data set [1], the “degree of damage, Veronica” value is 90%. Besides, the results for the “degree of damage, Setaria” value in data set [2] (60 g ai./ha) and in data set [2] (125 g ai./ha) were 100% and 95%, respectively. Further, in data set [3] (60 g ai./ha), the pest or weed control at 60 g/ha worked out at 80%. The pest or weed control at 125 g/ha in data set [3] (125 g ai./ha) came out at 90%. In data set [4], the “degree of damage, Bromus” value worked out at 90%. Besides, the “degree of damage, Agropyron” value in data set [5] is listed as 70%. Further, the “degree of damage, Avena” value is recorded as 70% in data set [6] (60 g ai./ha) and 90% in data set [6] (125 g ai./ha). Besides, the “degree of damage, Lolium” value in data set [7] turned out to be 90%. Besides, in data set [8], the “degree of damage, Wheat” value turned out to be 0%.

These data come from patent US7651978B2, “Selective herbicides based on a substituted phenylsulphonylaminocarbonyl-triazolinone” (Arysta LifeScience North America, LLC, priority 1998, dated 2010).
